Data published in US12116358B2, “Substituted indoles and methods of use thereof” (EPIZYME, INC., priority 2018, dated 2024).
Read-outs that look alike come from different tables or passages of the source.

Tests used:
H3K36me3 in A549 cells = experiment: In-Cell Western (ICW) assay of SETD2 inhibitors (A549 assay); assay type: cell-based, human; conditions: A549 cells, read-out: SETD2 A549
Method in brief: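 A549 cells seeded at 4,000/well onto compound and incubated 3 days at 37° C. Methanol-fixed cells stained overnight at 4° C with anti-H3K36me3 (1:1000), then IRDye 800CW secondary with DRAQ5 DNA counterstain. Plates read by Licor imaging at 700 and 800 channels.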

SETD2(1434-1711) = target: T1, SETD2(1434-1711) (Homo sapiens, UniProt Q9BYW2); experiment: SETD2 (1434-1711) assay; assay type: biochemical; conditions: read-out: SETD2 (1434-1711)
T1 construct: SETD2 (1434-1711) Assay; catalogue N/A
T1 sequence (Q9BYW2 1434-1711): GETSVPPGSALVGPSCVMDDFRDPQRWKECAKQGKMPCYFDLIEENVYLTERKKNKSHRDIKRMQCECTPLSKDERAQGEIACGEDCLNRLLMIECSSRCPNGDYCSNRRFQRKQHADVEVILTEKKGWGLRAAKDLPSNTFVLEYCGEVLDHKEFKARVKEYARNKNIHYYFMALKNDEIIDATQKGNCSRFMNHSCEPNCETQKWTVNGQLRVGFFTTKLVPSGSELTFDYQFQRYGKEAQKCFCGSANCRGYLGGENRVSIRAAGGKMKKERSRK

IC50 (H3K36me3 in A549 cells; Homo sapiens) [nM] | IC50 (SETD2(1434-1711)) [nM] | IC50 (H3K36me3 in A549 cells) [nM] | Compound
1200 | 200 |  | Cc1ccc(F)c2cc(C(=O)Nc3cccc(C4COCCN4)c3)[nH]c12 (stereo not drawn) [compound 307]
1300 | 100 |  | Cc1ccc(F)c2cc(C(=O)Nc3cccc(N4CC[C@@H](N(C)C)C[C@H]4C)c3)[nH]c12 [compound 308]
1300 | 200 |  | Cc1cc(Cn2ccnc2)cnc1C(NC(=O)c1cc2cccc(C)c2[nH]1)C1CC1 (stereo not drawn) [compound 309]
1300 | 50 |  | Cc1ccc(F)c2cc(C(=O)Nc3cccc(N4CCCC(N)C4)c3)[nH]c12 (stereo not drawn) [compound 310]
1300 | 30 |  | Cc1ccc(F)c2cc(C(=O)Nc3cc(C(F)F)cc(N4CCC(N(C)C)CC4)c3)[nH]c12 [compound 311]
1300 | 800 |  | Cc1ccc(F)c2cc(C(=O)Nc3cccc(N4CCN(c5ccccc5)CC4)c3)[nH]c12 [compound 312]
1300 | 30 |  | Cc1ccc(F)c2cc(C(=O)Nc3cc(F)cc([C@H]4CC[C@H](N(C)C)CC4)c3)[nH]c12 [compound 313]
1300 | 40 |  | Cc1ccc(F)c2cc(C(=O)Nc3cccc(NC(=O)C4CCCN4)c3)[nH]c12 (stereo not drawn) [compound 314]
1400 | 600 |  | Cc1ccc(F)c2cc(C(=O)Nc3cccc(C(C)(C)O)c3)[nH]c12 [compound 315]
1400 | 100 |  | Cc1ccc(F)c2cc(C(=O)Nc3cccc(-c4ncccn4)c3)[nH]c12 [compound 316]
1400 | 100 |  | Cc1cn(Cc2cnc(C(NC(=O)c3cc4c(F)ccc(C)c4[nH]3)C3CC3)c(C)c2)c(C)n1 (stereo not drawn) [compound 317]
1400 | 200 |  | Cc1ccc(F)c2cc(C(=O)Nc3cccc(N4CCN(C)CC4C)c3)[nH]c12 (stereo not drawn) [compound 318]
1400 | 100 |  | Cc1ccc(F)c2cc(C(=O)Nc3cccc(-c4nnc(N)o4)c3)[nH]c12 [compound 319]
1400 | 200 |  | Cc1c(NC(=O)c2cc3c(F)ccc(C)c3[nH]2)cccc1N1CCN(C)CC1 [compound 320]
1500 | 200 |  | Cc1ccc(F)c2cc(C(=O)Nc3cccc(N4CCNCC4=O)c3)[nH]c12 [compound 321]
1500 | 500 |  | Cc1ccc(F)c2cc(C(=O)Nc3cccc(-c4ccn[nH]4)c3)[nH]c12 [compound 322]
1500 | 70 |  | Cc1ccc(F)c2cc(C(=O)Nc3cccc(OCCN(C)C)c3)[nH]c12 [compound 323]
1500 | 50 |  | Cc1ccc(F)c2cc(C(=O)Nc3cccc([C@H]4CC[C@@H](N(C)C)C4)c3)[nH]c12 [compound 324]
1600 | 200 |  | CNc1cccc(-c2cccc(NC(=O)c3cc4c(F)ccc(C)c4[nH]3)c2)n1 [compound 326]
 | 500 | 1600 | Cc1ccc(F)c2cc(C(=O)NC3C(=O)NCCc4ccccc43)[nH]c12 (stereo not drawn) [compound 327]
1600 | 40 |  | Cc1ccc(F)c2cc(C(=O)Nc3cccc(N4CCn5cnnc5C4)c3)[nH]c12 [compound 328]
1600 | 600 |  | Cc1ccc(F)c2cc(C(=O)Nc3cccc(C(=O)N(C)C)c3)[nH]c12 [compound 329]
1600 | 70 |  | Cc1ccc(F)c2cc(C(=O)Nc3cccc(NC4CCN(C)C4)c3)[nH]c12 (stereo not drawn) [compound 330]
1600 | 600 |  | Cc1ccc(F)c2cc(C(=O)Nc3cccc(N4CCOCC4CCO)c3)[nH]c12 (stereo not drawn) [compound 331]
 | 200 | 1600 | Cc1ccc(F)c2cc(C(=O)Nc3cccc(N4CCCC4)c3)[nH]c12 [compound 332]
 | 300 | 1600 | Cc1ccc(F)c2cc(C(=O)Nc3cc(Cl)cc(CN4CCOCC4)c3)[nH]c12 [compound 333]

Compound | IC50 (H3K36me3 in A549 cells; Homo sapiens) [nM] | IC50 (SETD2(1434-1711)) [nM] | IC50 (H3K36me3 in A549 cells) [nM]
Cc1ccc(F)c2cc(C(=O)Nc3cccc(N(C)C4CCNCC4)c3)[nH]c12 [compound 325] | 1500 | 70 | 
